Calls of active or inactive are those of the source.
Key:
[1] = molecular target: T1, Apoptotic protease-activating factor 1 (Homo sapiens, UniProt O14727); type: functional
T1 sequence (O14727 whole entry): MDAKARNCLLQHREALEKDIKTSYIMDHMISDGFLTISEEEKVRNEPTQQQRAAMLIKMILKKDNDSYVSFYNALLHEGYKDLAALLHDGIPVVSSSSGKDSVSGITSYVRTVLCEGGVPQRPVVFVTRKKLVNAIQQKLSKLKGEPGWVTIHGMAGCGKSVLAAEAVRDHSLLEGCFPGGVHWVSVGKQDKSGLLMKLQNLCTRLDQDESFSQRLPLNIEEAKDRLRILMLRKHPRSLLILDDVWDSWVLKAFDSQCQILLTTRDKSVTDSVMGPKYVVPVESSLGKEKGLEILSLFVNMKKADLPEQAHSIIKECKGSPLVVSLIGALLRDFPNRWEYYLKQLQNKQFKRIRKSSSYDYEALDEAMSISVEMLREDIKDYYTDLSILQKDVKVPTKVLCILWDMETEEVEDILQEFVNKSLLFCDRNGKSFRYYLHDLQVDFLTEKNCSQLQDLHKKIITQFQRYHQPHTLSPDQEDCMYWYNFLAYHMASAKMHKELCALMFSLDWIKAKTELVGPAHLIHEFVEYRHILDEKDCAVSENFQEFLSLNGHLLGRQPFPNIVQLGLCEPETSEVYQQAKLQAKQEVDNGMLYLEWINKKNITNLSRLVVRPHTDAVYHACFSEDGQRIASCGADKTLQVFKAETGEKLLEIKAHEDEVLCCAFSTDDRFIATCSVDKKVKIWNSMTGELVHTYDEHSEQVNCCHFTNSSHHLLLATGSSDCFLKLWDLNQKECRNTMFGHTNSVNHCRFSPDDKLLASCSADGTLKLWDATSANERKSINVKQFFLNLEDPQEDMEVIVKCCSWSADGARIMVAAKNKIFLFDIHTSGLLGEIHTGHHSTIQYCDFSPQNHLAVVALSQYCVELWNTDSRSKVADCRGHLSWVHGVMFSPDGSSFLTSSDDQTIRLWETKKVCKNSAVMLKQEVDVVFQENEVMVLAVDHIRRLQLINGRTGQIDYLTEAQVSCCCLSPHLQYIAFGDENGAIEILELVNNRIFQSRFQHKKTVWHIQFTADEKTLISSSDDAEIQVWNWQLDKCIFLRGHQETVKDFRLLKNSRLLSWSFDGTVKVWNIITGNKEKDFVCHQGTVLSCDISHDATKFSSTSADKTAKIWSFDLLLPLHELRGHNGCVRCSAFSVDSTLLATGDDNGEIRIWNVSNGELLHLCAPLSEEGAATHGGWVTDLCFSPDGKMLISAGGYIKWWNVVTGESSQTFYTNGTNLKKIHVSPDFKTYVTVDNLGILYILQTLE

Cytochrome P450 2C9 = Cytochrome P450 2C9 (Homo sapiens, UniProt P11712)
Cytochrome P450 2C19 = Cytochrome P450 2C19 (Homo sapiens, UniProt P33261); assay: Cytochrome panel assay with activity outcomes. Panel member name: p450-cyp2c19 Compounds with AC50 equal or less than 10 uM are considered active; type: functional; settings: read-out: AC50
[2] = molecular target: FAD-linked sulfhydryl oxidase ALR (Homo sapiens, UniProt P55789); assay: inhibitors of human ALR sulfhydryl oxidase, dose response, biochemical, H2O2 detection, luminescence, cherry-pick (AID 493248)
Large T antigen = Large T antigen (Simian virus 40, UniProt P03070); type: functional, Betapolyomavirus macacae;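 note: Confirmatory-stage PubChem screen for compounds that inhibit SV40 T antigen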
[3] = HepG2 cell cytotoxicity, dose response, cytotoxicity control for non-replicating M. tuberculosis project (AID 489018); type: functional; settings: Mycobacterium tuberculosis
[4] = growth suppression of PTEN-null colon cells, dose response, cell-based, HCT116 PTEN knockout (AID 1047); type: functional;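 note: HCT116 colon tumor cells with PTEN knocked out; cells exposed to compound for 60 hours before readout; potency for loss of cell viability measured by luminescence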
[5] = growth suppression of beta-catenin-knockout colon cells, dose response, cell-based, HCT116, human colon tumor (AID 1045); type: functional;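 note: HCT116 colon tumor cells with beta catenin knocked out; cells exposed to compound for 60 hours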
[6] = THP-1 cell cytotoxicity, dose response, cytotoxicity control for non-replicating M. tuberculosis project (AID 489025); type: functional
cells = type: functional
[7] = Vero E6 cell cytotoxicity, dose response, cytotoxicity control for non-replicating M. tuberculosis project, secondary assay (AID 492998); type: functional, VeroE6; settings: Vero C1008
[8] = Luminescence Cell-Based Dose Response HTS to Identify Inhibitors of 5'UTR Stem-Loop Driven Prion Protein mRNA Translation in H4 Neuroglioblastoma Cells. [Related pubchem assays: 1827 (Project Summary), 1813 (Primary HTS)]; type: functional
[9] = inhibitors of firefly luciferase expression or activity, dose response, H4 neuroglioma cells, luminescence (AID 1990); type: functional, cell-based
[10] = inhibitors of SNCA 5'UTR-driven reporter translation, confirmation, H4 neuroglioma cells, luminescence (AID 1988); type: functional, cell-based
Cytochrome P450 3A4 = Cytochrome P450 3A4 (Homo sapiens, UniProt P08684);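 note: CYP3A4 tested as one member of a cytochrome P450 panel screen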
H9c2 = assay: cells; type: functional, cell-based; settings: Rattus norvegicus, H9c2, Myocardium;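 note: confirmatory concentration-response retest of ultra-high-throughput screening hits for modulation of myocardial damage; cell death induced by hydrogen peroxide oxidative stress; compound pretreatment for 60 min then peroxide exposure for 2 h; potency is for protecting the cells against peroxide damage rather than for killing them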
[11] = molecular target: T2, Endoribonuclease toxin MazF (Escherichia coli K-12, UniProt P0AE70); assay: fluorescent RNA oligo signal without MazF, dose response, counter-screen for MazEF activator project, biochemical, fluorescence, single-stranded RNase substrate (AID 588502); type: functional
T2 sequence (P0AE70 whole entry): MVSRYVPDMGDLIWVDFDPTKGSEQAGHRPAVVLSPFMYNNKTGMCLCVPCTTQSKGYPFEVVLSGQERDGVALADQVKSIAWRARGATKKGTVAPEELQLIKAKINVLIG

[12] = molecular target: T2, Endoribonuclease toxin MazF; assay: MazF toxin RNase activators, dose response, biochemical, fluorescence, single-stranded RNA substrate, uHTS hits (AID 588481); type: functional

Sequence of Cytochrome P450 2C19 (P33261 whole entry): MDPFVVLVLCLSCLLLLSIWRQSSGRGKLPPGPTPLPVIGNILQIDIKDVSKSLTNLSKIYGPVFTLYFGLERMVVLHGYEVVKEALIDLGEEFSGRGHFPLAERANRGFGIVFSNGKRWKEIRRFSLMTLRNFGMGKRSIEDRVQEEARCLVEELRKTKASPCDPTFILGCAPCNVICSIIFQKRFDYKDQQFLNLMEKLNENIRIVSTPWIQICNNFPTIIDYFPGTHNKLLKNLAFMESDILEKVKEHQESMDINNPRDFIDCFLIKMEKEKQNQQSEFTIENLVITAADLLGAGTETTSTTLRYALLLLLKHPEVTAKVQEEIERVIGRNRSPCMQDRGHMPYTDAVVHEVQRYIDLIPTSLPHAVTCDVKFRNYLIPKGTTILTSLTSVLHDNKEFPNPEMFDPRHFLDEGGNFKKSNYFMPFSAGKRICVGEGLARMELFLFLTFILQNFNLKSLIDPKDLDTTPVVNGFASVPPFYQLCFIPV
Sequence of Cytochrome P450 2C9 (P11712 whole entry): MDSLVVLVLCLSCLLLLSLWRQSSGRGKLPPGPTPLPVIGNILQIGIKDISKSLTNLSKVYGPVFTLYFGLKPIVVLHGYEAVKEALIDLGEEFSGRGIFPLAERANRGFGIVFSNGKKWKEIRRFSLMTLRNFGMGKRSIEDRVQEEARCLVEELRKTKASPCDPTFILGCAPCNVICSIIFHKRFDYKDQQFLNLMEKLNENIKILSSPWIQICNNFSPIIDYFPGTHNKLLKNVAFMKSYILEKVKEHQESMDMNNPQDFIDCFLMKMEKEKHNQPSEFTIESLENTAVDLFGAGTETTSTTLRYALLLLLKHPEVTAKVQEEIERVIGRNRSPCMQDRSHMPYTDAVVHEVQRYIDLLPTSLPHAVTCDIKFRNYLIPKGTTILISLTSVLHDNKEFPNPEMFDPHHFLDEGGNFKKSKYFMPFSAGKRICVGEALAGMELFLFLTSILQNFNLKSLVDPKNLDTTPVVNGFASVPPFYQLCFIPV
Sequence of Large T antigen (P03070 whole entry): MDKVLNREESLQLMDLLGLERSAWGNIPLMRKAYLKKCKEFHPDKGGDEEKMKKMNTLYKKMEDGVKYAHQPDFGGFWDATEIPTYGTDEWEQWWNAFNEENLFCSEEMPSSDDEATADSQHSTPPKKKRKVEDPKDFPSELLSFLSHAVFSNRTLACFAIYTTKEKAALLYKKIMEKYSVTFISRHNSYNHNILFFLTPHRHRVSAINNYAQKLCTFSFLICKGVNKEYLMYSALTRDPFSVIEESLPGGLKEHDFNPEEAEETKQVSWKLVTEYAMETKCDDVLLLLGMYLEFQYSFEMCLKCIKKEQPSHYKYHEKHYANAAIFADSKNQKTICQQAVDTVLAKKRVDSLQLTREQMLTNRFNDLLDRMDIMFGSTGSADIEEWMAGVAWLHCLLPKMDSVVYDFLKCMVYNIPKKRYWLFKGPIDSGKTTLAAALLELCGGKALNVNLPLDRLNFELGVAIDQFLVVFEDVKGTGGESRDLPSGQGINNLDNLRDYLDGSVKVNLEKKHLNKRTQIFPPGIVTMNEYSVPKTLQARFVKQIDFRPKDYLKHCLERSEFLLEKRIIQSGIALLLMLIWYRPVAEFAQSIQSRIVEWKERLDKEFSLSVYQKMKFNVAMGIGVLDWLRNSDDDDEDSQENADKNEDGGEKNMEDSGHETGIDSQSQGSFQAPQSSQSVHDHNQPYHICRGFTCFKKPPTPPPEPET
Sequence of FAD-linked sulfhydryl oxidase ALR (P55789 whole entry): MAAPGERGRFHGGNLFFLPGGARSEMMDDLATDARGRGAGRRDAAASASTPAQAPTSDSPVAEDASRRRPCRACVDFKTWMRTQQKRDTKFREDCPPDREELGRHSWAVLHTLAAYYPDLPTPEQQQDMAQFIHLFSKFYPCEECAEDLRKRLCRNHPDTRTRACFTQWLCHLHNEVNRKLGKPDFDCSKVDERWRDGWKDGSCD
Sequence of Cytochrome P450 3A4 (P08684 whole entry): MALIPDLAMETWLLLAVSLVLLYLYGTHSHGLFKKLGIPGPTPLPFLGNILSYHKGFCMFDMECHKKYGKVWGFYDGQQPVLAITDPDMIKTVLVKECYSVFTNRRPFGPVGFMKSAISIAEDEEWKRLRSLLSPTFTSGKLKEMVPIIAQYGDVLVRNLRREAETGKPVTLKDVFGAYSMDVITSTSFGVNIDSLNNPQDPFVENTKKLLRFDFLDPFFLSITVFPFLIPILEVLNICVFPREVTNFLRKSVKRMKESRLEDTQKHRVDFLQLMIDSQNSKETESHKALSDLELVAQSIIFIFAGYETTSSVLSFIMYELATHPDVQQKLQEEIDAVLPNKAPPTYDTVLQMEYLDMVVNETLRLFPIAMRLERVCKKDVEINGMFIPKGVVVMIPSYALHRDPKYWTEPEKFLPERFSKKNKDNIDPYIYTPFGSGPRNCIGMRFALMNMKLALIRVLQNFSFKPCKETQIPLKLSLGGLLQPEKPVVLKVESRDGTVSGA

O=C(CCn1c2c(c3ccccc31)CCCC2)NNC(=O)c1ccc(Cl)c([N+](=O)[O-])c1
IC50 [1]: 0.798 µM (active)

CCCCn1nc2cc(C(=O)NCC3CC3)ccc2c1OCC
AC50 (Cytochrome P450 2C9): inconclusive
AC50 (Cytochrome P450 2C19): 14.1 µM (inconclusive)

CCN(CC)c1ccc(NC(=O)c2cccnc2)c(C)c1
AC50 [2]: 0.877 µM (active)
IC50 (Large T antigen): 77.3 µM (active)
AC50 (Cytochrome P450 2C9): inconclusive
AC50 (Cytochrome P450 2C19): 39.8 µM (inconclusive)

CCOc1cc(CNCCO)cc(Br)c1OCc1ccc(Cl)cc1
CC50 [3]: 11 µM (active)
EC50 [4]: 7.29 µM (active)
EC50 [5]: 7.16 µM (active)
CC50 [6]: 9.41 µM (active)
IC50 (cells): 26.9 µM (active)
CC50 [7]: 12.7 µM (active)

C=CCn1c(C)cc(C(=O)CN2C(=O)c3ccccc3C2=O)c1C
EC50 [8]: 18.7 µM (active)
EC50 [9]: 10.1 µM (inconclusive)
AC50 (Cytochrome P450 2C9): inconclusive
EC50 [10]: 8.53 µM (active)

Cl.Fc1ccc(CCNCc2cccc(Cl)c2)cc1
AC50 (Cytochrome P450 3A4): 12.6 µM (inconclusive)
AC50 (Cytochrome P450 2C9): inconclusive
AC50 (Cytochrome P450 2C19): 1 µM (inconclusive)

CCn1c(/C=N/NC(=O)c2ccc(OC)cc2)nc2ccccc21
CC50 [3]: > 20 µM (active)
CC50 [6]: 24.1 µM (active)
IC50 (cells): 15.7 µM (active)
CC50 [7]: 17.9 µM (active)
IC50 (H9c2): > 79 µM (inactive)

COc1ccc(CN2C(=O)NC(=O)/C(=C/c3ccc[nH]3)C2=O)cc1
EC50 [11]: > 99 µM (inactive)
EC50 [12]: > 99 µM (inactive)

Reference: ChEMBL document CHEMBL1201862, “PubChem BioAssay data set” (2004)
